In patent US10428387B2, “Treating chronic myelogenous leukemia (CML)” (priority 2014, dated 2019):
Structures can show the parent of a compound that is named as a salt.

Assays:
[1] = tested on: phosphorylated ERK1/2 in CML progenitor and stem cells; assay: Intracellular phosphorylated-ERK1/2 analysis by FACS; assay type: cell-based, mouse; conditions: 5 μM IM or 10 nM trametinib, 3 hours
Method: For intracellular phosphorylated-ERK1/2 analysis, bone marrow cells isolated from leukemic mice were treated with 5 μM IM or 10 nM trametinib for 3 hours, fixed in 4% paraformaldehyde (Electron Microscopy Sciences) for 10 min at 37° C., washed twice with wash buffer (0.05% BSA in 1×PBS), spun down, and resuspended in 100 μl wash buffer. Ice-cold methanol (900 μl) was added to the cells while gently vortexing to reach a final 90% for permeabilization. Samples were incubated on ice for 30 min, washed twice, and resuspended in 100 μl wash buffer. IgG control antibody (Cell signaling) was added (at 1:100 dilution) for 10 min at room temperature for blocking, followed by addition of 2 μl conjugated IgG control (Pacific Blue-conjugated IgG^XP Rabbit mAb, Cell Signaling) or phospho-ERK antibody (Pacific Blue-conjugated P-p44/42(T202/Y204)^XP Rabbit mAb, Cell Signaling). Samples were gently mixed and incubated at room temperature for 1 hour. Thirty minutes after the start of the incubation, a cocktail of primary antibodies for cell surface markers (described above) was added, incubated for a further 30 min, washed once with PBS, and incubated with the secondary antibody for 20 min on ice. Samples were then washed once with wash buffer prior to FACS analysis.

IMSG KD K562 cells = conditions: representative IMSG KD K562 cell lines expressing PRKCH shRNA
K562R cells = conditions: K562R over-express the Src family kinase LYN; cited from earlier work
[2] = tested on: mice with CML-like disease (Prkch KD); assay: Prkch knockdown mice with CML-like disease; assay type: in vivo, mouse; conditions: IM from day 14
Method: Mice with CML-like disease were generated as previously described (22). Briefly, wild-type male C57BL/6 mice 6-8 weeks of age (Jackson Laboratory) were tail-vein injected with 5-fluorouracil (200 mg/kg; Sigma) for 4 days to enrich for slow-cycling hematopoietic stem cells. At day 5, bone marrow cells were harvested and pre-incubated overnight in the presence of IL-3, IL-6 and SCF (all from PeproTech) to increase infection efficiency. At days 6 and 7, bone marrow cells were infected with a BCR-ABL retrovirus by co-sedimentation method at 3,000 rpm for 90 min at room temperature. Four hours after the second round of retroviral infection, 0.5×10^6 bone marrow cells were injected into the tail vein of syngeneic recipient mice that had been lethally irradiated (twice at 550 R). Mice were randomly allocated to each group after bone marrow transplantation.

[3] = tested on: RAF/MEK/ERK signaling (phosphorylated ERK1/2); assay: Immunoblot analysis of RAF/MEK/ERK signaling in K562 cell lines; assay type: cell-based, human
Method: Cells were harvested and lysed with RIPA buffer (10×, 200 mM HEPES pH 6.8, 1400 mM NaCl, 25 mM MgCl2, 25 mM CaCl2, 10% NP40, and 5% sodium deoxycholate) plus phosphatase (Sigma) and protease inhibitors (Roche). […] The PKCη antibody (Santa Cruz Technology; C-15) was diluted in 5% skim milk at 1:150. The β-actin antibody (Sigma; AC-74) diluted in 5% BSA at 1:5000. Blots were developed with Pico/Femato super signal (Sigma) and visualized using autoradiography or a Bio-Rad ChemiDoc MP Imaging System.

Q: Which “phosphorylated ERK1/2 in CML progenitor cells” value [1] does the source give for Cc1ccc(NC(=O)c2ccc(CN3CCN(C)CC3)cc2)cc1Nc1nccc(-c2cccnc2)n1 [IM, imatinib mesylate] here?
A: The value was “reduced levels of phosphorylated ERK1/2”.

Q: And the “IM resistance after knockdown of PRKCH” value (IMSG KD K562 cells)?
A: Its value is “abrogated the IM resistance”.

Q: What about the “sensitivity of K562R cells” value (K562R cells) of the same compound?
A: Its value is “resistant”.

Q: What about the “survival of IM-treated mice after knockdown of Prkch” value [2] of the same compound?
A: Its value is “markedly increased survival”.

Q: What about the “phosphorylated MEK and ERK1/2 after IM treatment” value ([3]; K562/PRKCH cells) of the same compound?
A: The value was “maintained high levels”.

Q: And the “phosphorylation of ERK1/2 following IM treatment” value ([3]; all IMSG KD K562 cell lines)?
A: Its value is “sustained levels”.

Q: And the “phosphorylated-ERK1/2 levels after IM treatment” value ([3]; control K562 cells)?
A: Its value is “substantial decrease”.
